Measurements from patent US20240374578A1, “USE OF MEDICINE FOR REDUCING IRON CONTENT IN BRAIN IN PREPARATION OF DRUG FOR TREATING AND/OR PREVENTING NEUROPSYCHIATRIC DISEASES” (SOOCHOW UNIVERSITY, priority 2022, published 2024).

Test system: morphine addiction in mice
Experiment: Morphine conditioned place preference scoring of mice
Type: in vivo, C57BL/6J mice
Settings: 6 h before morphine 20 mg/kg/day i.p., 7 days, vs morphine group

Row | SMILES | preference score on morphine-paired side (Vadadustat 10 mg/kg/day i.p., FIG. 4) | preference score on morphine-paired side (Deferiprone 13 mg/mL, 1 μL into dorsal hippocampus, FIG. 5)
1 | O=C(O)CNC(=O)c1ncc(-c2cccc(Cl)c2)cc1O [Vadadustat] | significantly reduced | 
2 | Cc1c(O)c(=O)ccn1C [Deferiprone, 3-hydroxy-1,2-dimethyl-4-(1H)-pyridone] |  | significantly reduced
